We go through 60 compounds from PubChem BioAssay AID463204 (Broad Institute, 2010).

SMILES strings stand for the structures. The source made the active and inactive calls.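 How the source made its calls: active means AC50 no more than ten times the top concentration tested, that is within one log above it; inconclusive means flat curve fit with activity between 30% and 70%, or invalid poor fit; inactive means AC50 beyond ten times the top tested dose.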

The test system of the experiment is S. cerevisiae Mot1-301 ts growth rescue, BacTiter-Glo ATP luminescence. Briefly: growth rescue of Mot1-301 ts yeast, confirmation, SUMOylation pathway inhibitor project, whole organism, S. cerevisiae, Mot1-301 ts mutant, luminescence, dose retest (AID 463204).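 Further: growth at restrictive 38.5 degrees C of Mot1-301 OY566 strain; actives raise luminescence by restoring growth of the ts mutant at high temperature.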

A word on the AC50: it is the concentration giving half of the maximal activity seen.

On to `O=C1CC(c2cccc(Br)c2)C2=C(COC2=O)N1` (stereo not given), for which the AC50 was > 42 µM (inactive).
With `COc1ccc(CN(CC(=O)NCc2ccco2)C(=O)CCC(=O)Nc2nccs2)cc1`, the AC50 was > 42 µM (inactive).
For `COc1ccc(N(C(=O)c2ccco2)C(C(=O)NC2CCCCC2)c2ccccc2)cc1` (stereo not given), the AC50 is > 42 µM (inactive).
Then `Oc1c(Br)cc(Br)cc1C=Nc1cccnc1`, with 4.88 µM.
Regarding `COc1ccc(N2C(=O)CSC23CCCCC3)cc1`, the AC50 is > 42 µM (inactive).
Regarding `CCN(CC)c1ccc(N=Cc2c(O)n(Cc3ccccc3)c(=O)[nH]c2=O)cc1`, the AC50 is > 42 µM (inactive).
With `CCCOc1ccc([N+](=O)[O-])c(N)c1`, the AC50 was > 42 µM (inactive).
On to `Oc1cccc(/C=N/N2CCN(c3ccccn3)CC2)c1`, for which the AC50 is > 21 µM (inactive).
`COc1ccc(C(=O)OCC(=O)c2ccccc2)cc1S(=O)(=O)N1CCOCC1`: the AC50 was > 42 µM (inactive).
The same measure for `COc1ccccc1NC(=S)N(Cc1ccccc1)Cc1cccs1`: > 42 µM (inactive).
In the case of `CCn1c(SCC(=O)Nc2nc(-c3ccccc3)cs2)nnc1-c1ccccc1`, the AC50 is > 42 µM (inactive).
Consider `Cc1ccc(C2C(C(=O)c3cccs3)=C(O)C(=O)N2c2ccc(S(N)(=O)=O)cc2)cc1` (stereo not given), for which the AC50 is > 42 µM (inactive).
On to `O=C1CCC(=O)N1CCOP1(=O)COc2ccccc2OC1`, for which the AC50 is > 42 µM (inactive).
With `CC(=O)NC1CCCN(O)C(=O)/C=C(\C)CCOC(=O)C(NC(C)=O)CCCN(O)C(=O)/C=C(\C)CCOC(=O)C(NC(C)=O)CCCN(O)C(=O)/C=C(\C)CCOC1=O` (stereo not given), the AC50 is > 42 µM (inactive).
The same measure for `CCCN1C(=O)c2[nH]nc(-c3cc(Cl)c(C)cc3O)c2C1c1ccc(O)c(OC)c1` (stereo not given): > 42 µM (inactive); for `COc1ccc(N(C(=O)c2ccncc2)S(=O)(=O)c2ccc(F)cc2)cc1`: > 42 µM (inactive); for `Cc1cccc(N(C(=O)c2ccc(CN3CCOCC3)o2)C(C(=O)NC2CCCCC2)c2ccc(F)cc2)c1` (stereo not given): > 42 µM (inactive).
As for `COc1cc(SC)ccc1C(=O)N1CCCCCC1`, the AC50 was > 42 µM (inactive).
As to `Cc1ccccc1-c1nc2ccc(Cl)cc2c(=O)n1O`, the AC50 was > 42 µM (inactive).
With `COc1ccccc1NS(=O)(=O)c1cc(Cl)ccc1OC`, the AC50 was > 42 µM (inactive).
Turning to `COc1ccc(N2CCN(C(=O)Cn3nnc(-c4ccc(OC)c(OC)c4)n3)CC2)cc1`, the AC50 is > 42 µM (inactive).
For `O=C(CCn1cnnn1)Nc1ccc(Cl)cc1Cl`, the AC50 is > 42 µM (inactive).
With `NC(=O)c1cccc2cc3ccccc3cc12`, the AC50 is > 42 µM (inactive).
`CN(C)S(=O)(=O)c1cc(NC(=O)CSc2nn(-c3ccc(Cl)cc3)c(=S)s2)ccc1Cl`: the half-maximal activity concentration (AC50) is 31.1 µM.
As to `CC(=O)N1CCN(CC(O)COc2ccc(OCc3ccccc3)cc2)CC1` (stereo not given), the AC50 was > 42 µM (inactive).
With `Cc1cc(C)n(-c2ccc(C(=O)C(C#N)c3nc4ccccc4n3C)cc2)n1` (stereo not given), the AC50 is > 42 µM (inactive).
Then `COc1ccccc1NC(=O)CN(c1ccc(C)cc1)S(=O)(=O)c1c(C)n[nH]c1C`, with > 42 µM (inactive); and `Cc1[nH]c(C)c(S(=O)(=O)NCC(C)c2ccccc2)c1C(=O)N1CCCCC1` (stereo not given), with > 42 µM (inactive).
Consider `COc1ccc(-c2cn(-c3ccc(C)cc3)c(=O)n2CC(=O)Nc2ccc(OC)c(OC)c2)cc1`, for which the AC50 is > 42 µM (inactive).
As to `C=CCOC(=O)C(C#N)c1nc2ccccc2nc1N1CCN(Cc2ccccc2)CC1` (stereo not given), the AC50 was > 42 µM (inactive).
On to `CCc1c(C)nc(N2CCN(Cc3ccccc3)CC2)[nH]c1=O`, for which the AC50 was > 42 µM (inactive).
Take `O=C1c2ccccc2C(=O)N1CCCCSc1nc2ccccc2c(=O)n1CCCN1CCOCC1`: the AC50 was > 42 µM (inactive).
As to `CCc1ccc2c(c1)C(c1ccc([N+](=O)[O-])cc1)=NNC(c1ccc(C)cc1)=N2`, the AC50 was > 42 µM (inactive).
As to `COC(=O)C1(Cc2ccc(O)cc2)OC(=O)C(O)=C1c1ccc(O)cc1` (stereo not given), the AC50 was > 42 µM (inactive).
For the compound `Nc1nnc(COc2ccc(Br)cc2Br)s1`, the AC50 is > 42 µM (inactive).
For the compound `CC(=O)c1ccc(C(=O)N2CCCC(N3CCN(c4ccc(F)cc4)CC3)C2)s1` (stereo not given), the AC50 was > 42 µM (inactive).
Turning to `O=S(=O)(NCc1cccc(C(F)(F)F)c1)NCc1ccccc1F`, the AC50 was > 42 µM (inactive).
Regarding `Cc1c(NC(=O)c2cc(-c3ccccc3O)on2)c(=O)n(-c2ccccc2)n1C`, the AC50 was > 42 µM (inactive).
In the case of `CCOC(=O)C1CCN(C(=O)c2ccc3c(c2)NC(=O)/C(=C/c2ccccc2)S3)CC1`, the AC50 is > 42 µM (inactive).
Turning to `CCN(CC)c1nc(Nc2ccc(Cl)cc2)nc(OCC#N)n1`, the AC50 was > 42 µM (inactive).
With `COc1cc(C(C2=C(O)CC(C)(C)CC2=O)C2C(=O)CC(C)(C)CC2=O)cc(OC)c1OC` (stereo not given), the AC50 was > 42 µM (inactive).
Consider `CCCSc1nc(=O)n2cccc(C)c2n1`, for which the AC50 was > 42 µM (inactive).
For the compound `CCn1cc(C(=O)NCc2ccccn2)c(=O)c2cc(F)c(N3CCN(C)CC3)cc21`, the AC50 is > 42 µM (inactive).
On to `CCc1ccc2[nH]c(=O)c(C(c3nnnn3Cc3ccccc3)N3CCOCC3)cc2c1` (stereo not given), for which the AC50 is > 42 µM (inactive).
The same measure for `CCOc1ccccc1C(=O)N(Cc1cccs1)C1CCS(=O)(=O)C1` (stereo not given): > 42 µM (inactive); for `CC(Oc1ccccc1)C(=O)Nc1ccccc1O` (stereo not given): > 42 µM (inactive).
With `C(=N\Nc1ccc2nncn2n1)/c1ccccn1`, the AC50 is > 42 µM (inactive).
Consider `NS(=O)(=O)c1cccc(NC(=O)CSc2nnnn2-c2ccccc2)c1`, for which the AC50 was > 42 µM (inactive).
Take `CN1C(=O)C(=Cc2cn(CC(=O)N3CCCC3)c3ccccc23)C(=O)N(C)C1=O`: the AC50 was > 42 µM (inactive).
Turning to `C[n+]1c(-c2ccccc2)cc(CCCCc2cc(-c3ccccc3)[n+](C)c(-c3ccccc3)c2)cc1-c1ccccc1`, the AC50 is > 21 µM (inactive).
Consider `Cc1cc(C)c[n+](-c2nc3ccccc3nc2[N-]S(=O)(=O)c2ccc(Br)s2)c1`, for which the AC50 was > 42 µM (inactive).
Then `O=C(O)c1cc(S(=O)(=O)Nc2ccc(OCc3ccccc3)cc2)ccc1Br`, with > 42 µM (inactive).
For `COc1ccc(-c2cc(C#N)nc(N3CCN(c4ccccc4)CC3)n2)cc1`, the AC50 was > 42 µM (inactive).
In the case of `CC(=O)Nc1ccc(S(=O)(=O)Nc2ccc(S(=O)(=O)Nc3ncccn3)cc2)cc1`, the AC50 is > 42 µM (inactive).
For `CCOc1ccc(NC(=O)CC2C(=O)N(c3ccccc3)C(=S)N2Cc2ccccn2)cc1` (stereo not given), the AC50 is > 42 µM (inactive).
Turning to `CCOc1ccc(NC(=O)CN(C)C(=O)c2ccc(OCc3ccccc3)c(OC)c2)cc1OCC`, the AC50 is > 42 µM (inactive).
`O=C(O)c1cn(Cc2ccccn2)c(=O)c2ccccc12`: the AC50 is > 42 µM (inactive).
The same measure for `CCCCNC(=O)C1C2C=CC3(CN(Cc4ccc(C)cc4)C(=O)C13)O2` (stereo not given): > 42 µM (inactive); for `CS(=O)(=O)N(CC(=O)N1CCCCCC1)Cc1ccc(Cl)cc1`: > 42 µM (inactive).
In the case of `FC(F)(F)c1nc2ccccc2n2c(-c3ccc(Cl)cc3Cl)nnc12`, the AC50 is > 42 µM (inactive).
